Where “and” joins values, the source holds several entries; their conditions need not be identical. Equal entries are not always repeated. Where two headings read alike, the source gives them in different places.

For data set [1] the following is noted: crystalline form of US 2005/0085495 (WO2005/037824); cited from earlier work.
Data set [2] can be described thus: Chemical stability at 30° C./65% relative humidity for 4 weeks (HPLC). The class given is physicochemical. The settings on record: stable means purity change less than about 1% by HPLC, solid state form maintained.
Data set [3] in a line: Stability and hygroscopicity at 40° C./75% relative humidity. The class given is physicochemical. An excerpt:
The term “non-hygroscopic” as used herein, and unless stated otherwise, refers to crystalline Afatinib di-maleate uptaking/absorbing less than 0.2% (w/w) of atmospheric water to the crystalline Afatinib di-maleate in the below specified conditions, as measured by Karl-Fischer (KF) titration or by monitoring the weight increase during dynamic vapour sorption (DVS) test.

A short description of data set [4]: Investigation of hygroscopicity (dynamic vapour sorption) with Karl-Fischer titration of the product. Format: physicochemical. On the procedure: Karl-Fischer titration was carried out using […] from Merck (HX908240). The instructions of the manual were followed and each sample was analyzed in triplicate. […] Investigation of Hygroscopicity (Dynamic Vapour Sorption (DVS)) Instrument: SPSx-1μ, (Projekt Messtechnik) Temperature: 25° C. Humidity cycles: [table] […] Then the sample was analyzed by XRD diffraction.

In the case of `CN(C)C/C=C/C(=O)Nc1cc2c(Nc3ccc(F)c(Cl)c3)ncnc2cc1O[C@H]1CCOC1` [Afatinib di-maleate, (E)-4-Dimethylamino-but-2-enoic acid {4-(3-chloro-4-fluoro-phenylamino)-7-[(S)-(tetrahydro-furan-3-yl)oxy]-quinazolin-6-yl}-amide], in data set [1], the hygroscopicity result is reported as “limited hygroscopisity” and the polymorphic stability result is “polymorphically stable”.

As for `CN(C)C/C=C/C(=O)Nc1cc2c(Nc3ccc(F)c(Cl)c3)ncnc2cc1O[C@H]1CCOC1` [Form C, (E)-4-Dimethylamino-but-2-enoic acid {4-(3-chloro-4-fluoro-phenylamino)-7-[(S)-(tetrahydro-furan-3-yl)oxy]-quinazolin-6-yl}-amide], the chemical stability result in data set [2] is listed as “chemically stable”.

Consider `CN(C)C/C=C/C(=O)Nc1cc2c(Nc3ccc(F)c(Cl)c3)ncnc2cc1O[C@H]1CCOC1` [Form E, (E)-4-Dimethylamino-but-2-enoic acid {4-(3-chloro-4-fluoro-phenylamino)-7-[(S)-(tetrahydro-furan-3-yl)oxy]-quinazolin-6-yl}-amide], for which the hygroscopicity result in data set [3] is “not hygroscopic”. Moreover, the polymorphic stability result in data set [3] (stable means less than 1% converts to any other solid state form) is on record as “polymorphically stable”. The “water content (% by weight), average” value in data set [4] (Karl-Fischer titration, average of triplicate, after DVS of Form A at 25° C.) worked out at 7.00 % by weight. The “water content (% by weight)” value in data set [4] (Karl-Fischer titration, single determinations of a triplicate, after DVS humidity cycles of Form A at 25° C., 0-95% relative humidity, listed as Afatinib di-maleate after DVS of Form A) is 6.95 % by weight and 7.15 % by weight and 6.90 % by weight. In addition, in data set [4] (obtained product analysed by 1H-NMR and HPLC), the “decomposition after DVS” value was “no decomposition”.
